Results on 4 molecules are retold here after US11072634B2, “Inhibitors of transglutaminases” (Zedira GmbH, priority 2016, dated 2021).

Structures are written as SMILES.

Assay [1] has as its target T1, recombinant human factor XIII A-subunit (rhFXIII-A, plasma transglutaminase) (Homo sapiens, UniProt P00488).
T1 construct: His6; purchased Zedira 1027 (so in the source); T027)
T1 sequence (P00488 39-732 limits assumed): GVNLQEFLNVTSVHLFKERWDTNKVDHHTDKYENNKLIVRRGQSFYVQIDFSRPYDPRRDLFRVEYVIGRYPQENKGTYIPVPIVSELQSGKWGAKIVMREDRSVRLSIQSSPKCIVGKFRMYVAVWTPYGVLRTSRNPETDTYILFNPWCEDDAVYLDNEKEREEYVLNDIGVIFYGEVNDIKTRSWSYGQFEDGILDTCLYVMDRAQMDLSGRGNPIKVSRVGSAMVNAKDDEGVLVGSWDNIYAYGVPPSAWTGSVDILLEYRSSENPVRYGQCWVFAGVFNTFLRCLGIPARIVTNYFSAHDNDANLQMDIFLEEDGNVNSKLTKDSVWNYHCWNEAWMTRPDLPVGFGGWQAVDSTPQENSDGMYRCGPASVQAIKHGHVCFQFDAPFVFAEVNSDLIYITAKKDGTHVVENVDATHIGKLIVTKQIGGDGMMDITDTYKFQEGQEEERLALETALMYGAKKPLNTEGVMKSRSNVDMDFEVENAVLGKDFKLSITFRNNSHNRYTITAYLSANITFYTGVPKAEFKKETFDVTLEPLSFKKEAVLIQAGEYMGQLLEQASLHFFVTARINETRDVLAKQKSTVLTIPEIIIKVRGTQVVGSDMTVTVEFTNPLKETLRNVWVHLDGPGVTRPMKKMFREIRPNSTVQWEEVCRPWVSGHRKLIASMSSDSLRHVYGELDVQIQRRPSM
Description: Inhibition of rec. human coagulation factor XIII (fluorescence, Abz-NE(CAD-DNP)EQVSPLILLK-OH). The class given is biochemical. The conditions noted are these: Table 1, selectivity with respect to FXIII; read-out: IC50 FXIII. Put shortly:
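His6-rhFXIII activated by human alpha thrombin in Tris buffer pH 7.4 with 7.5 mM CaCl2, 5 mM DTT, 13.4 mM glycine methylester and 50 μM quenched peptide substrate. Fluorescence (ex 313, em 418 nm) followed at 37 °C for 35 min; IC50 from slope between 20 and 30 min versus 2% DMSO control.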

A further assay has as its system NRK52E cells. Description: Extracellular matrix protein deposition of NRK52E cells (DC-protein-assay). The class given is cell-based, Rattus norvegicus. Particulars: hyperglycemic glucose concentrations. As to the method: Fibrosis is a hallmark in diabetic nephropathy and chronic kidney diseases. Proximal tubular epithelial cells show increased TG2 activity and increased extracellular matrix proteins (ECM) accumulation under hyperglycemic conditions. ECM accumulation is a hall mark of fibrosis. […] TG2-activity and ECM-accumulation was measured. Rattus norvegicus kidney derived cell line NRK52E was grown at 37° C. in a humidified atmosphere at 5% (v/v) CO2 in DMEM (Dulbecco's modified Eagle's medium) containing 100 μg/mL streptomycin, 100 units/ml penicillin, […], and 10% (v/v) fetal calf serum. For simulation of normal physiological conditions 6 mM D-glucose were added to the medium, while addition of 24 mM and 36 mM D-glucose simulated hyperglycemic conditions. Reversible TG2 inhibitor E06 in the concentrations indicated in FIG. 1A was added at the time of plating to the medium. Reversible TG2 inhibitor E22 in the concentrations indicated in FIG. 2A was added at the time of plating to the medium.
For the determination of extracellular matrix proteins (ECM) deposition, cells grown in 10 cm Petri-dishes were removed with 1 mL sodium deoxycholate (0.1%) -EDTA (2 mM)-solution. ECM proteins remaining on the plate were solubilized by digestion with trypsin (0.2 mg/mL) -EDTA (2 mM) solution. […] Protein concentration was determined using the DC-protein-assay (BioRad, #5000111).

In the case of `COC(=O)[C@H](CC(C)C)NC(=O)[C@@H]1CCCN1C(=O)[C@@H](NC(=O)[C@H](CCC(=O)C(N)=O)NC(=O)OCc1ccccc1)C(C)C` [Compound E02, (S)-methyl 2-((S)-1-((S)-2-((S)-6-amino-2-(benzyloxycarbonylamino)-5,6-dioxo-hexanamido)-3-methylbutanoyl)pyrrolidine-2-carboxamido)-4-methylpentanoate], the IC50 in assay [1] is greater than 100 µM.
For `CC(=O)N[C@@H](CCC(=O)C(N)=O)C(=O)N1CCN(c2ccccc2Cl)CC1` [Compound E06, (S)-5-acetamido-6-(4-(2-chlorophenyl)piperazin-1-yl)-2,6-dioxohexanamide], the “increase of ECM (extracellular matrix protein deposition)” value in the assay on NRK52E cells was “reduced in a dose dependent manner”. Moreover, the IC50 in assay [1] is greater than 100 µM.
As to `CC(=O)N1CCC[C@H]1C(=O)N[C@@H](CCC(=O)C(N)=O)C(=O)N1CCN(c2ncccc2C)CC1` [Compound E07, (S)-1-acetyl-N—((S)-6-amino-1-(4-(3-methylpyridin-2-yl)piperazin-1-yl)-1,5,6-trioxohexan-2-yl)pyrrolidine-2-carboxamide], the IC50 in assay [1] was greater than 100 µM.
Regarding `CCCCCNC(=O)C(=O)CC[C@H](NC(=O)[C@@H]1CCCN1C(C)=O)C(=O)Nc1cccn(CC(=O)NCC(CC)CC)c1=O` [Compound E22, (S)-2-((S)-1-acetylpyrrolidine-2-carboxamido)-N1-(1-(2-(2-ethylbutylamino)-2-oxoethyl)-2-oxo-1,2-dihydropyridin-3-yl)-5-oxo-N6-pentylhexanediamide], the “increase of ECM (extracellular matrix protein deposition)” value in the assay on NRK52E cells is on record as “reduced in a dose dependent manner”.

A word on the IC50: it is the concentration that gives 50% inhibition.
